The text below walks through data of US11149052B2, “2′3′-cyclic dinucleotides” (Institute of Organic Chemistry and Biochemistry, ASCR, V.V.I, priority 2018, dated 2021).

Assay [1] concerns the target T1, WT STING (truncated human WT STING protein) (Homo sapiens, UniProt Q86WV6, H232R).
T1 construct: truncated human WT STING or AQ STING (amino acid residues 140-343); 8xHis (N, cleaved yes); SUMO (N, cleaved yes); made in house; host or cells: E. coli Rosetta-gami B (DE3)
The experiment in a line: Differential Scanning Fluorimetry with WT STING. The format is binding. Particulars: thermal shift vs apoprotein; 150 μM CDN; 0.1 mg/ml STING protein; SYPRO Orange; read-out: DSF ΔTm (° C.) WT STING.

Assay [2] concerns the target T2, AQ STING (truncated human STING G230A-R293Q allelic form) (Homo sapiens, UniProt Q86WV6, G230A/H232R/R293Q).
T2 construct: truncated human WT STING or AQ STING (amino acid residues 140-343); 8xHis (N, cleaved yes); SUMO (N, cleaved yes); made in house; host or cells: E. coli Rosetta-gami B (DE3)
Kind of assay: Differential Scanning Fluorimetry with AQ STING. It is filed as binding. Particulars: thermal shift vs apoprotein; 150 μM CDN; 0.1 mg/ml STING protein; SYPRO Orange; read-out: DSF ΔTm (° C.) AQ STING.

The target in assay [3] is human wild type STING (WT STING) (Homo sapiens, UniProt Q86WV6, H232R). The experiment in a line: Digitonin assay using 293T wtSTING-FL reporter cells (ISRE firefly luciferase reporter). It is filed as cell-based. The note with it: 293T wtSTING-FL cells; 30 min in Digitonin buffer, then 5 hours; luciferase read-out; 8-point dose-response curve; read-out: Digitonin assay EC50 (μmol · l^−1) WT STING.

The structures appear in SMILES notation.

Sequence of human wild type STING (WT STING) (Q86WV6 whole entry H232R): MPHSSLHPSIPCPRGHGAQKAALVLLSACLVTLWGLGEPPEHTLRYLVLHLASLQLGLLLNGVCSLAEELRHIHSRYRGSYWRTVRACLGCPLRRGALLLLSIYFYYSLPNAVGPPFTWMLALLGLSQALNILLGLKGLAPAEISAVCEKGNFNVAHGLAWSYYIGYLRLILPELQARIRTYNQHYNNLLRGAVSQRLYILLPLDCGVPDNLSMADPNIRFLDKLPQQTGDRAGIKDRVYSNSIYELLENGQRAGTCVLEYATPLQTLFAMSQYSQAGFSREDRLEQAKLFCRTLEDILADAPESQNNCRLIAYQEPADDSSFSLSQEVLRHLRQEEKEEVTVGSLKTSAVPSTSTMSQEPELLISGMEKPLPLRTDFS
T2 sequence (Q86WV6 140-343 G230A/H232R/R293Q): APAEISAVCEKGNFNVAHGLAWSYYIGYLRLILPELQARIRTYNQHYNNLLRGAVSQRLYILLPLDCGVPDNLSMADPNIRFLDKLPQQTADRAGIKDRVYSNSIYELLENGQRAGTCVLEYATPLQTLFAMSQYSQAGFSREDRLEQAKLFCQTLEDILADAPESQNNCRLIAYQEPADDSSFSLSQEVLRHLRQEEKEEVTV
T1 sequence (Q86WV6 140-343 H232R): as the sequence (Q86WV6 140-343 G230A/H232R/R293Q) above, with A91G, Q154R counted along it

For `Nc1nc(N)c2ncn([C@@H]3O[C@@H]4COP(=O)(O)O[C@@H]5[C@H](O)[C@@H](COP(=O)(O)CO[C@H]4[C@H]3F)O[C@H]5n3cnc4c(N)ncnc43)c2n1` [Example 26, (1R,6R,8R,9R,10R,16R,18R,19R)-18-(6-amino-9H-purin-9-yl)-8-(2,6-diamino-9H-purin-9-yl)-9-fluoro-3,13,19-trihydroxy-2,4,7,11,14,17-hexaoxa-3λ^5,13λ^5-diphosphatricyclo[14.2.1.0^6,^10]nonadecane-3,13-dione], the ΔTm at 150 µM was found to be 2.1 °C in assay [1] and 7.5 °C in assay [2]. For the same compound, the EC50 in assay [3] is 580 nM.
